Data published in patent US8258099B2, “Pin1-modulating compounds and methods of use thereof” (Max-Planck-Gesellschaft zur Foerderung der Wissenschaften …, priority 2004, dated 2012).
Where two headings read alike, the source gives them in different places. Square brackets hold non-standard residues; d marks the D form. Peptide text beside a SMILES is read from it. * marks the point of attachment. Biotin = O=C1N[C@H]2[C@H](CS[C@H]2CCCCC(=O)*)N1; pT = C[C@@H](OP(=O)(O)O)[C@H](N)C(=O)O; 2Nal = N[C@@H](Cc1ccc2ccccc2c1)C(=O)O; Bta = N[C@@H](Cc1csc2ccccc12)C(=O)O; Pip = O=C(O)[C@@H]1CCCCN1

Experiments:
[1] = Stability against cellular phosphatases and proteases in HeLa cell lysate; format: in vitro ADME; settings: cytoplasmic extracts from HeLa cells, prolonged incubation, MALDI-TOF
Protocol: FIG. 4 depicts the stability of peptide 17 against cellular phosphatases and proteases. Peptide 17 was incubated for 3 hours in HeLa cell lysate in the absence of phosphatase and protease inhibitors. The mixture was then analyzed by capillary electrophoresis (short dashed line). As controls, the untreated peptide 17 (solid line) and its nonphosphorylated derivative (dotted line) were used. The temperature of the capillary thermostating system was kept at 16° C. Separation buffer was 50 mM sodium phosphate, pH 7.0. Signals were detected at 220 nm.
Peptide 17 was incubated with HeLa cell lysate for 3 h and analyzed with capillary electrophoresis using UV detection at 220 nm on a P/ACE MDQ (Beckman Coulter, Palo Alto, Calif.) system. Fused-silica capillaries (Polymicro Technologies) of 40 cm length at an operation voltage of 20 kV were used. As references, untreated peptide 17 and its nonphosphorylated derivative were used. The samples were hydrodynamically injected with 3.45 kPa for 10 s. 50 mM sodium phosphate buffer (pH 7.0) was used as separation buffer. The system temperature was kept at 16° C.
The stability of peptides 15 and 17 in cytoplasmic extracts from HeLa cells was investigated using MALDI-TOF mass spectrometry and capillary electrophoresis, respectively. In the cytosolic incubation mixture, streptavidin sepharose beads served to isolate peptide 15 fragments after prolonged incubation. […] Therefore, phosphopeptides are useless for evaluating Pin1 functions in vivo unless dephosphorylation can be avoided.

[2] = target: T1, GST-hPin1 variant Ser16Glu (Homo sapiens, UniProt Q13526, S16E); test: Far western blot related analysis, GST-hPin1 variants; format: binding
T1 construct: made in house
Protocol: FIGS. 2A-B depict western blot experiments analyzing the binding of peptide 15 to Pin1. FIG. 2A depicts the binding preferences of the PPIase and WW domain of hPin1 regarding peptide 15. In far western blot related experiments, increasing amounts (from left to right: 1, 5, 10, 52.5, 105 pmol) of GST, GST-hPin1 or its single GST-hPin1 PPIase and GST-hPin1 WW domain were spotted onto nitrocellulose membranes followed by a blocking procedure. The membranes were then incubated with a 1 μM solution of peptide 15 or 50 μM solution of its nonphosphorylated derivative (control). Signals were detected after incubation of the nitrocellulose membranes with horseradish peroxidase-conjugated streptavidin followed by a chemiluminescent reaction using the SuperSignal® substrate. FIG. 2B depicts an analysis of the binding of peptide 15 towards different GST-hPin1 variants. The indicated amounts of peptide 15 were spotted onto nitrocellulose membranes followed by a blocking procedure and incubation with the respective GST-hPin1 variant. […] Residual PPIase activities of GST-hPin1 and its variants were determined according to Zhou et al., 2000 and/or Yaffe et al., 1997. The PPIase activity of the GST-hPin1 variant Ser16Glu was measured in the protease free PPIase assay. […]

[3] = target: T2, GST-hPin1, GST-hPin1 PPIase and GST-hPin1 WW domain (Homo sapiens, UniProt Q13526); test: Far western blot related analysis, hPin1 and its single domains; format: binding; settings: 1 μM peptide 15, 50 μM nonphosphorylated derivative
T2 construct: made in house
Protocol: FIGS. 2A-B depict western blot experiments analyzing the binding of peptide 15 to Pin1. FIG. 2A depicts the binding preferences of the PPIase and WW domain of hPin1 regarding peptide 15. In far western blot related experiments, increasing amounts (from left to right: 1, 5, 10, 52.5, 105 pmol) of GST, GST-hPin1 or its single GST-hPin1 PPIase and GST-hPin1 WW domain were spotted onto nitrocellulose membranes followed by a blocking procedure. The membranes were then incubated with a 1 μM solution of peptide 15 or 50 μM solution of its nonphosphorylated derivative (control). Signals were detected after incubation of the nitrocellulose membranes with horseradish peroxidase-conjugated streptavidin followed by a chemiluminescent reaction using the SuperSignal® substrate. FIG. 2B depicts an analysis of the binding of peptide 15 towards different GST-hPin1 variants. […] Residual PPIase activities of GST-hPin1 and its variants were determined according to Zhou et al., 2000 and/or Yaffe et al., 1997. The PPIase activity of the GST-hPin1 variant Ser16Glu was measured in the protease free PPIase assay.
GST-hPin1 variants, GST-hPin1 PPIase and GST-hPin1 WW domain were prepared as described previously (Ranganathan et al., 1997, Zhou et al., 2000). […] Specific bound peptide 15 was detected by a chemiluminescent reaction using the SuperSignal® substrate (Pierce).

hPin1 = target: T3, hPin1 (Homo sapiens, UniProt Q13526); test: Protease free PPIase assay, hPin1; format: biochemical
T3 construct: The protease free assay ensures reliable measurement of IC50 values for the full-length hPin1
Protocol: Protein concentrations were determined using the extinction coefficient ε280=21030 M^−1 cm^−1 for hPin1, ε280=6979 M^−1 cm^−1 for the hPin1 PPIase domain, ε280=21030 M^−1 cm^−1 for XlPin1, ε280=8250 M^−1 cm^−1 for hPar14 and ε280=8250 M^−1 cm^−1 for hCyp18. Extinction coefficients were calculated using the program ProtParam Tool at ExPASy (SIB, Switzerland). All measurements were done at 10° C. in 35 mM Hepes buffer (pH 7.8).
The determination of the kinetic constants of the cis/trans isomerization within the protease-free system was performed using fluorescence based measurements (Garcia-Echeverria et al., 1993, Zhang et al., 2002) on a Hitachi F-3010 fluorescence spectrophotometer with H-Abz-Ala-Glu-Pro-Phe-NH-Np (SEQ ID NO: 2) as substrate. The substrate stock solution was 12 mM in anhydrous trifluoroethanol/0.55 M LiCl. Measurements were initiated by addition of the substrate (final concentration 10 μM) to a pre-incubated (15 min) mixture of 8.8 nM hPin1 or 7.1 nM XlPin1 and respective inhibitory peptide of desired concentrations. The excitation wavelength was 320 nm (spectral bandwidth 3 nm) and emission was detected at 420 nm (spectral bandwidth 10 nm).
Data analysis was performed by single-exponential nonlinear regression using the SigmaPlot Scientific Graphing System Version 5.00 (Jandel Corp.). The apparent first order rate constant kobs was computed by nonlinear regression of the progress curve obtained for the respective measurement. The rate constant k0 was determined in the absence of Pin1. The first order rate constants kenz was calculated from the equation kenz=kobs−k0. IC50 and Ki values were determined by fitting the first order rate constants kenz against the concentration of the inhibitory peptide by nonlinear regression according to Schutkowski et al., 1995 or a model for tight binding inhibitors (Morrison, 1969).
The protease free assay ensures reliable measurement of IC50 values for the full-length hPin1.

phosphothreonine residue in cytosol [1]: completely dephosphorylated
sequence integrity in cytosol [1]: sequence integrity was maintained
effect of Ser16Glu substitution in hPin1 on affinity [2]: virtually no effect
binding to GST-hPin1 and its PPIase and WW domains [3]: binds only to the PPIase domain
IC50 (hPin1; blockade of PPIase activity of full-length hPin1, protease free assay, 10° C., read-out: IC50): 210 nM
IC50 (hPin1; protease free assay, full-length hPin1, read-out: lowest IC50 value): ~200 nM
Structure (SMILES): CC(=O)N[C@@H](CCCCNC(=O)CCCC[C@@H]1SC[C@@H]2NC(=O)N[C@@H]21)C(=O)N[C@@H](C)C(=O)N[C@@H](C)C(=O)N[C@@H](Cc1csc2ccccc12)C(=O)N[C@H](C(=O)N1CCCC[C@H]1C(=O)N[C@@H](Cc1ccc2ccccc2c1)C(=O)N[C@@H](CCC(N)=O)C(N)=O)[C@@H](C)OP(=O)(O)O [Peptide 15, Ac-Lys(N^ε-biotinoyl)-Ala-Ala-Bth-Thr(PO3H2)Pip-Nal-Gln-NH2] (Ac-K(Biotin)AA[Bta][pT][Pip][2Nal]Q-NH2)
